For one assay, the target named is T1, α1A-AR (Homo sapiens, UniProt P35348).
T1 construct: gene ADRA1A; human receptor from pcDNA3.1+ plasmid, stably expressed in rat PC12 cells
T1 sequence (P35348 1-466): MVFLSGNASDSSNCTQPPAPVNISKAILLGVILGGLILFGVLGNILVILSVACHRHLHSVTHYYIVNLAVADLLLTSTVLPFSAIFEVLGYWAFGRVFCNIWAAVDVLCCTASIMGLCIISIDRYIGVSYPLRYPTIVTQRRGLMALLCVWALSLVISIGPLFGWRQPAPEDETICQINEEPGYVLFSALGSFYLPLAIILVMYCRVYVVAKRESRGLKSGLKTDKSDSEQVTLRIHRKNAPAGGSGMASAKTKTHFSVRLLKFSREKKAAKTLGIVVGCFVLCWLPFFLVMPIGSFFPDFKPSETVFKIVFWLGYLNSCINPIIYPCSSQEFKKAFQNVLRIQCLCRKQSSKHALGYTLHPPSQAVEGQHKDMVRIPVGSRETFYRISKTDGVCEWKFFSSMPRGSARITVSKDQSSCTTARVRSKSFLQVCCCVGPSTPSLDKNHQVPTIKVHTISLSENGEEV
The experiment in a line: IP-One HTRF inositol phosphate accumulation, PC12 cells. Format: cell-based. For orientation: In TR-FRET formats the signal depends on donor and acceptor labels being close together.

The next assay concerns the target T2, α1B-AR (Homo sapiens, UniProt P35368).
T2 construct: gene ADRA1B; human receptor from pcDNA3.1+ plasmid, stably expressed in rat PC12 cells
T2 sequence (P35368 1-520): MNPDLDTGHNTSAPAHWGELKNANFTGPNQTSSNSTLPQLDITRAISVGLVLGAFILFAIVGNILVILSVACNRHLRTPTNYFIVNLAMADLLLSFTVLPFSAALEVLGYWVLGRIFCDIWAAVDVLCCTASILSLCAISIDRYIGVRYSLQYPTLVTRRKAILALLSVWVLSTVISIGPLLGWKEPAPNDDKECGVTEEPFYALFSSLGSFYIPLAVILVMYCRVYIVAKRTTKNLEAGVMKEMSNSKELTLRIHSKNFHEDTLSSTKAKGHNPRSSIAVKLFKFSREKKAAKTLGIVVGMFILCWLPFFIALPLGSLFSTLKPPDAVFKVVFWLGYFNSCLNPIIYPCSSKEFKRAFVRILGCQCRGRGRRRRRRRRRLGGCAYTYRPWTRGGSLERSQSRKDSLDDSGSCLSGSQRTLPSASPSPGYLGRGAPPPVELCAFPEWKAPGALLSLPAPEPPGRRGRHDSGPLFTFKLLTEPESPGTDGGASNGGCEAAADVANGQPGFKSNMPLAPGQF
The description is as above. The class given is cell-based.

Molecules are shown by their SMILES. Where two headings read alike, the source gives them in different places. Bounds are passed on as bounds.

In the case of `CN(C)CCCN1c2ccccc2CCc2ccccc21` [imipramine], the results for the IC50 on α1A-AR (read-out: α1A (converted)) and against α1B-AR were 0.468 µM and 8.13 µM, respectively. For `CNCCC(Oc1ccc(C(F)(F)F)cc1)c1ccccc1` (stereo not drawn) [fluoxetine], the IC50 at α1B-AR is > 100 µM. As to `COc1cccc(OC)c1OCCNCC1COc2ccccc2O1` (stereo not drawn) [WB4101], the IC50 on α1A-AR (antagonism of noradrenaline at EC90, 37 °C, pH 7) is listed as 1 × 10^−8.6 M. `CNCCCN1c2ccccc2CCc2ccccc21` [desipramine] gave an IC50 on α1B-AR of 7.94 µM.

On to `CN(C)CCCC1(c2ccc(F)cc2)OCc2cc(C#N)ccc21` (stereo not drawn) [citalopram], for which the IC50 against α1B-AR is > 100 µM.

The values are drawn from PMC8124549, “Antidepressants Differentially Regulate Intracellular Signaling from α1-Adrenergic Receptor Subtypes In Vitro” (International Journal of Molecular Sciences, 2021).
